Laboratory results as given in patent US20210277102A1, “COMPOSITIONS AND METHODS FOR TREATING A TUMOR SUPPRESSOR DEFICIENT CANCER” (BETH ISRAEL DEACONESS MEDICAL CENTER, INC., priority 2016, published 2021).
“Also recorded” adds a separate entry of the source.

Test system: Pten^pc−/−; Zbtb7a^pc−/− prostate tumors
Assay: In vivo drug and antibody treatment of Pten^pc−/−; Zbtb7a^pc−/− mice (MRI, flow cytometry, histology, western blot, qRT-PCR)
Set-up: species or system mouse
Description: Mice were allocated at random to experimental groups and studies were performed in an unblended manner. For treatment with the CXCR2 antagonist, SB225002 (Cayman Chemical #13336) was dissolved in DMSO (10 mg/ml) and diluted in vehicle (0.9% NaCl, 0.3% Tween 80) for in vivo administration. Mice (4 months of age) were treated daily for 10 days by intraperitoneal injection (5 mg/kg) and prostate tumor tissue (anterior lobes) was subjected to Flow Cytometry and histological analysis. For MRI analysis, mice (4 months of age) were treated daily for 21 days (Pten^pc-/-; Zbtb7a^pc-/-), for 14 days (Pten^pc-/-; Trp53^pc-/-) or for 14 days (Pten^pc-/-; Pml^pc-/-) by intraperitoneal injection (5 mg/kg). For depletion of Gr-1+/CD11b+ cells, Ly6G-depletion antibody (1A8, BioXcell) and control Rat IgG2a antibody (BioXcell) were diluted in phosphate-buffered saline (PBS) for in vivo administration. Mice (4 months of age) were treated every other day for 10 days by intraperitoneal injection (200-300 μg/mouse). InVivoMAb anti-mouse Ly6G/Ly6C (Gr-1) antibody, clone RB6-8C5 (BE0075, BioXcell), and control Rat IgG2b antibody (BE0090, BioXcell) were diluted in PBS and Pten^pc-/-; Trp53^pc-/- mice were treated every other day for 14 days by intraperitoneal injection (200 μg/mouse). For neutralization of CXCL5, anti-Mouse CXCL5 antibody (Leinco Technologies) and control Rat IgG2a antibody (BioXcell) were diluted in PBS and injected every other day for 21 days by intraperitoneal injection (20 μg/mouse). Tumor volume quantification was performed by using VivoQuant and Image J software. All mouse prostate MRI imaging analysis was performed at Small Animal Imaging Core at BIDMC and acquired on an […] Model M2 1T tabletop scanner. For western blotting, cell lysates were prepared by homogenizing tumor tissue with NP40 Buffer (Boston Bioproducts) supplemented with protease (Roche) and HALT phosphatase inhibitor cocktails (Thermo Scientific) and subsequently subjected to SDS-Gel separation (Invitrogen) and western blotting. The following antibodies were used for western blotting: […] (AC-74; Sigma), CXCL5 (R & D Systems #AF433), pIRAK4 (Cell Signaling Technology #11927S), IRAK4 (Cell Signaling Technology #4363P), IκBα (Cell Signaling Technology #4812S), Zbtb7a (hamster anti-Zbtb7a clone 13E9), PTEN (Cell Signaling Technology #9559S), p53 (Cell Signaling Technology #2524S), p21 (Santa Cruz Biotechnology sc-6246) and HSP90 (BD Biosciences BDB610419). Western blots were quantified using Image J software. For immunohistochemistry, tissues and organoids were fixed in 4% paraformaldehyde and embedded in paraffin in accordance with standard procedures. Embedding and hematoxylin and eosin staining of sections were performed by the Histology Core at BIDMC and analyzed by a pathologist. Sections were stained with anti-LY6G (BioLegend #127603), anti-CD45R (Abcam #ab64100), anti-CD3 (Abcam #ab5690), anti-beta Catenin (Abcam #32572), anti-phospho ERK (Cell Signaling Technology #4376), anti-phospho AKT Ser473 (Cell Signaling Technology #4060) and anti-Ki67 (Thermo Scientific #RM-9106) according to manufacturer's recommendations. For Flow Cytometry, spleen and lymph node single cell suspensions were prepared by mashing the tissue in 2% FBS/PBS. Tumor and control prostate tissue (from anterior lobes) single cell suspension was prepared by mincing the tumor and digestion with Collagenase Type I (Life Technologies #17018029) in 10% DMEM (GIBCO) for 1 hr at 37° C. […]

Compound: O=C(Nc1ccc([N+](=O)[O-])cc1O)Nc1ccccc1Br [SB225002]
- tumor growth (tumor volume by MRI) (Zbtb7a^pc−/− mice, intraperitoneal injection, vs vehicle): significantly suppressed the tumor growth; also recorded: significant inhibition of tumor growth
- intra-tumoral Gr-1+/CD11b+ cells (flow cytometry) (Zbtb7a^pc−/− prostate tumors after treatment): decrease of Gr-1+/CD11b+ cells
- tumor burden (histological analysis) (Zbtb7a^pc−/− tumors, anterior prostate lobes): reduced tumor burden; also recorded: significantly diminished tumor involvement
- IκBα protein level (western blot) (Zbtb7a^pc−/− tumors, normalized with β-actin, vs vehicle): increased IκBα protein levels
- expression of CXCL5 in the prostate tumors (Zbtb7a^pc−/− tumors, vs vehicle): elevated expression of CXCL5
